Values of other authors in patent publication US20040247633A1, “Novel dermatological composition” (EBERSYTES, LLC, priority 2003, published 2004).

Details: metal chelate

Affinity Constant: 10^10-10^12
Structure (SMILES): CC(O)C(=O)[O-].CC(O)C(=O)[O-].[Cu+2] (stereo not shown) [Copper lacate]
